Where two headings read alike, the source gives them in different places.
Tests used:
[1] = test system: MDA-MB-468 cells; test: Sulforhodamine B antiproliferative assay, MDA-MB-468; format: cell-based, human
Protocol: (§1) The antiproliferative effect of the isolated compounds (1–11) was investigated by the sulforhodamine B assay against human triple-negative breast cancer cell lines (MDA-MB-468 and MDA-MB-231) and breast ductal carcinoma cells (MCF-7) and the non-tumorigenic fibroblast (HFF-1) and breast cell lines (MCF12A). The IC50 values were determined after 48 h of treatment (Table 1).
(§2) Human breast adenocarcinoma MDA-MB-231, MDA-MB-468, and MCF-7 cell lines and non-tumorigenic foreskin fibroblast (HFF-1) and breast (MCF12A) cell lines were purchased from American Type Culture Collection (ATCC, Rockville, MD, USA). All cancer cell lines, except MCF12A, were routinely cultured in RPMI-1640 medium with glutamine from Corning (VWR, Carnaxide, Portugal) supplemented with 10% fetal bovine serum (FBS) from Biowest (Labclinics, Barcelona, Spain). MCF12A cells were cultured in a 1:1 mixture of Dulbecco’s modified Eagle’s medium and Ham’s F12 medium, 20 ng/mL human epidermal growth factor, 100 ng/mL cholera toxin, 0.01 mg/mL bovine insulin, and 500 ng/mL hydrocortisone and supplemented with 10% FBS. All cells were maintained in a humidified incubator at 37 °C with 5% CO2. All cells were routinely tested for mycoplasma contamination using the MycoAlertTM PLUS detection kit (Lonza, Basel, Switzerland).
(§3) Human cell lines were seeded in 96-well plates at a density of 5.0 × 10^3 (MDA-MB-231, MCF-7, HFF-1, and MCF12A) and 7.5 × 10^3 (MDA-MB-468) cells/well and allowed to adhere for 24 h. Cells were treated with serial dilutions of compounds (ranging from 0.1 to 40 μM) for an additional 48 h. Effect on cell proliferation was measured by sulforhodamine B assay, as described in [33], and the half-maximal inhibitory concentration (IC50) was then determined for each cell line using the GraphPad Prism software version 7.0 (La Jolla, CA, USA).

[2] = test system: MCF12A cells; test: Sulforhodamine B antiproliferative assay, non-tumorigenic breast MCF12A; format: cell-based; conditions: Homo sapiens, MCF-12A, 48 h of treatment, read-out: IC50 MCF12A (D)
Protocol: as §1, §2, §3

[3] = test system: MDA-MB-231 cells; test: Mitochondrial ROS generation (MitoSOX); format: cell-based, human; conditions: 16 µM, 24 h
Protocol: Figure 2 Compound 7 induced cell cycle arrest, apoptosis, and ROS production, in MDA-MB-231 cells. […] (B) Effect of 16 µM of compound 7 on cell cycle progression after 48 h of treatment in MDA-MB-231 cells; the percentage of cells in each phase of the cell cycle was analyzed by flow cytometry, using PI; data are mean ± SEM of three independent experiments. […] (C) Effect of 16 µM of compound 7 on apoptosis after 48 h of treatment; the percentage of Annexin-positive cells was analyzed by flow cytometry using PI and Annexin-V staining; data are mean ± SEM of three independent experiments. […] (F) The graph represents the quantification of protein expression levels relative to DMSO; data are mean ± SD of three independent experiments. The ability of compound 7 to induce apoptosis in this cell line was also assessed by cytometry, using the Annexin V-FITC assay after 48 h of treatment. […]
For mitochondrial ROS generation assessment, MDA-MB-231 cells were seeded in 6-well plates at a density of 1.5 × 10^5 cells/well for 24 h, followed by treatment with 16 µM of compound 7 for an additional 24 h. Thereafter, cells were incubated with 3 μM MitoSOX (Thermo Fisher Scientific, Invitrogen, Portugal) for 30 min at 37 °C and analyzed by flow cytometry.

[4] = test system: MDA-MB-231 cells; test: Annexin V-FITC apoptosis assay; format: cell-based, human; conditions: 16 µM, 48 h, vs vehicle control
Protocol: Figure 2 Compound 7 induced cell cycle arrest, apoptosis, and ROS production, in MDA-MB-231 cells. […] (B) Effect of 16 µM of compound 7 on cell cycle progression after 48 h of treatment in MDA-MB-231 cells; the percentage of cells in each phase of the cell cycle was analyzed by flow cytometry, using PI; data are mean ± SEM of three independent experiments. […] (C) Effect of 16 µM of compound 7 on apoptosis after 48 h of treatment; the percentage of Annexin-positive cells was analyzed by flow cytometry using PI and Annexin-V staining; data are mean ± SEM of three independent experiments. […] (D) Effect of 16 µM of compound 7 on mitochondrial ROS generation after 24 h of treatment; data are mean ± SEM of three independent experiments (* p < 0.05, unpaired Student’s t-test). […] (F) The graph represents the quantification of protein expression levels relative to DMSO; data are mean ± SD of three independent experiments. The ability of compound 7 to induce apoptosis in this cell line was also assessed by cytometry, using the Annexin V-FITC assay after 48 h of treatment. […]
The analyses were performed basically as described in [33]. […] The cells were then analyzed by flow cytometry, and cell cycle phases were identified and quantified using the FlowJo × 10.0.7 Software (Treestar, Ashland, OR, USA). […]

[5] = test system: HFF-1 cells; test: Combination therapy with etoposide (SRB, CompuSyn), HFF-1; format: cell-based, human; conditions: for Combination Index HFF-1: 48 h
Protocol: (§4) The effect of 1.5 μM of compound 7 in combination with a range of concentrations of etoposide was evaluated after 48 h of treatment using CompuSyn software to calculate the combination index (CI) values for each combined treatment: CI < 1, synergy; 1 < CI < 1.1, additive effect; CI > 1.1, antagonism.
(§5) The effect of combined treatments on cell proliferation was analyzed by SRB assay. For each combination, the combination index (CI) values were calculated using the CompuSyn Software version 1.0; CI values < 1, 1 < CI < 1.1, and >1.1 indicate synergistic, additive, and antagonistic effects, respectively.

[6] = test system: MDA-MB-231 cells; test: Sulforhodamine B antiproliferative assay, MDA-MB-231; format: cell-based, human; conditions: for IC50: sulforhodamine B assay, 48 h of treatment, read-out: IC50 MDA-MDB-231 (A)
Protocol: as §1, §2, §3

[7] = test system: MDA-MB-231 cells; test: Combination therapy with etoposide (SRB, CompuSyn), MDA-MB-231; format: cell-based, human
Protocol: as §4, §5

COc1cc2c(cc1O)C(=O)OC1[C@@H](O)C=C3CCN(C)C3[C@]21O (stereo partly drawn) [Compound 7, 2α-10bα-dihydroxy-9-O-demethylhomolycorine]
IC50 ([1]; Homo sapiens, MDA-MB-468, 48 h, sulforhodamine B assay, 48 h of treatment): 16.3 ± 1.3 µM
SI E/B ([1]; selectivity index, HFF-1 vs MDA-MB-468): 0.81
SI D/B ([1]; selectivity index, MCF12A vs MDA-MB-468): 0.34
IC50 [2]: 5.6 ± 0.8 µM
mitochondrial ROS production [3]: increased ROS production
percentage of apoptotic (Annexin-positive) cells [4]: significant increase in the percentage of apoptotic cells
Combination Index HFF-1 ([5]; 1.5 µM compound 7 + etoposide 0.4 µM): 1.19
Combination Index HFF-1 ([5]; 1.5 µM compound 7 + etoposide 0.8 µM): 1.34
Combination Index HFF-1 ([5]; 1.5 µM compound 7 + etoposide 1.5 µM): 1.12
Combination Index HFF-1 ([5]; 1.5 µM compound 7 + etoposide 3 µM): 1.09
type of interaction with etoposide, HFF-1 ([5]; same experimental conditions as in MDA-MB-231 cells): no synergistic effects
effect of compound alone on cancer cell growth ([6]; 1.5 µM): no significant effect on cancer cell growth
IC50 ([6]; Homo sapiens, MDA-MB-231, 48 h): 8.02 µM
SI E/A ([6]; selectivity index, HFF-1 vs MDA-MB-231): 1.65
SI D/A ([6]; selectivity index, MCF12A vs MDA-MB-231): 0.69
IC50 [6]: 8 ± 1.68 µM
Combination Index MDA-MB-231 ([7]; 1.5 µM compound 7 + etoposide 0.4 µM, 48 h): 1.23
Combination Index MDA-MB-231 ([7]; 1.5 µM compound 7 + etoposide 0.8 µM, 48 h): 0.87
Combination Index MDA-MB-231 ([7]; 1.5 µM compound 7 + etoposide 1.5 µM, 48 h): 0.81
Combination Index MDA-MB-231 ([7]; 1.5 µM compound 7 + etoposide 3 µM, 48 h): 0.86
type of interaction with etoposide, MDA-MB-231 ([7]; 1.5 µM compound 7, etoposide 0.8, 1.5 and 3 µM): synergistic effects
effect on growth inhibitory effect of etoposide ([7]; 1.5 µM compound 7, etoposide 0.8, 1.5 and 3 µM, 48 h): significantly increased the growth inhibitory effect of etoposide
